A short description of this test: Inhibition of C-terminal 6XHis-tagged Shigella dysenteriae Stx1b (21 to 89 residues) expressed in Escherichia coli BL21 for 1 hr by ELISA assay. (In general: An ELISA detects its analyte on a solid surface through an enzyme-linked reagent.)
One may read the IC50 as the point on the concentration scale where inhibition reaches its midpoint. High values mean weaker potency in that assay, low ones greater potency in that assay. Consider `O=C(O)c1cc(OCc2cn([C@@H]3O[C@H](CO)[C@H](O[C@H]4O[C@H](CO)[C@H](O)[C@H](O)[C@H]4O)[C@H](O)[C@H]3O)nn2)cc(OCc2cn([C@@H]3O[C@H](CO)[C@H](O[C@H]4O[C@H](CO)[C@H](O)[C@H](O)[C@H]4O)[C@H](O)[C@H]3O)nn2)c1`, for which the 50% inhibitory concentration (IC50) came out at 1070 µM.
In turn, `O=C(NCCOc1cc(OCCNC(=O)OCc2cn([C@@H]3O[C@H](CO)[C@H](O[C@H]4O[C@H](CO)[C@H](O)[C@H](O)[C@H]4O)[C@H](O)[C@H]3O)nn2)cc(C(=O)O)c1)OCc1cn([C@@H]2O[C@H](CO)[C@H](O[C@H]3O[C@H](CO)[C@H](O)[C@H](O)[C@H]3O)[C@H](O)[C@H]2O)nn1` displayed an IC50 of 1240 µM. This IC50 and that of the molecule before are within 1.5-fold of each other.
Next, `O=C(O)c1cc(OCCNC(=O)c2cc(OCc3cn([C@@H]4O[C@H](CO)[C@H](O[C@H]5O[C@H](CO)[C@H](O)[C@H](O)[C@H]5O)[C@H](O)[C@H]4O)nn3)cc(OCc3cn([C@@H]4O[C@H](CO)[C@H](O[C@H]5O[C@H](CO)[C@H](O)[C@H](O)[C@H]5O)[C@H](O)[C@H]4O)nn3)c2)cc(OCCNC(=O)c2cc(OCc3cn([C@@H]4O[C@H](CO)[C@H](O[C@H]5O[C@H](CO)[C@H](O)[C@H](O)[C@H]5O)[C@H](O)[C@H]4O)nn3)cc(OCc3cn([C@@H]4O[C@H](CO)[C@H](O[C@H]5O[C@H](CO)[C@H](O)[C@H](O)[C@H]5O)[C@H](O)[C@H]4O)nn3)c2)c1`: 19.9 µM; `O=C(NCCCCCCCCCCCCNC(=O)c1cc(OCc2cn([C@@H]3O[C@H](CO)[C@H](O[C@H]4O[C@H](CO)[C@H](O)[C@H](O)[C@H]4O)[C@H](O)[C@H]3O)nn2)cc(OCc2cn([C@@H]3O[C@H](CO)[C@H](O[C@H]4O[C@H](CO)[C@H](O)[C@H](O)[C@H]4O)[C@H](O)[C@H]3O)nn2)c1)c1cc(OCc2cn([C@@H]3O[C@H](CO)[C@H](O[C@H]4O[C@H](CO)[C@H](O)[C@H](O)[C@H]4O)[C@H](O)[C@H]3O)nn2)cc(OCc2cn([C@@H]3O[C@H](CO)[C@H](O[C@H]4O[C@H](CO)[C@H](O)[C@H](O)[C@H]4O)[C@H](O)[C@H]3O)nn2)c1`: 13.5 µM.
`[N-]=[N+]=N[C@@H]1O[C@H](CO)[C@H](O[C@H]2O[C@H](CO)[C@H](O)[C@H](O)[C@H]2O)[C@H](O)[C@H]1O`: the 50% inhibitory concentration (IC50) is 4970 µM.

These data come from ChEMBL document CHEMBL5030516, “Fighting Shigella by Blocking Its Disease-Causing Toxin” (J Med Chem, 2021).
